Measured values from PMC6225122 (2018).
≈ marks a conversion by molar mass, not a printed value.

What was measured:
[1] = tested on: 5′-biotin aptamer 47 (DNA, aptamer) ACGCATAGGTCATGCCAAGCTGTACACCGTCCTGGCCTGGTTGGGATGTCCTATGCGT; assay: indirect competitive enzyme-linked aptamer assay (ic-ELAA); conditions: binding buffer: 8 g/L NaCl, 0.2 g/L KCl, 0.1 g/L MgCl2·6H2O, 0.1 g/L CaCl2; competition with coated CBL-BSA; 1 μM aptamer (50 μL), 37 °C, 1 h
[2] = tested on: aptamer 28 (DNA, aptamer) ACGCATAGGATGCAACAACGCGAATGCCACCAATTCGTGCTTGTCGTGTCCTATGCGT; assay: AuNP colorimetric titration (A520); conditions: 0.9 M NaCl (10 µL) added after binding; aptamer 0-1600 nM titrated against 1 μg/mL CBL, water, 30 min, room temperature
[3] = tested on: aptamer 78 (DNA, aptamer) ACGCATAGGGTACGCCACAGATCGACCTCTGGTTGGTCCTGTTGTGTGGCCTATGCGT; assay: AuNP colorimetric titration (A520); conditions: 0.9 M NaCl (10 µL) added after binding; aptamer 0-1600 nM titrated against 1 μg/mL CBL, water, 30 min, room temperature
[4] = tested on: aptamer 64 (DNA, aptamer) ACGCATAGGTACACCACATCGGATCGTAATGCGTATGTGACTCAGTGTGCCTATGCGT; assay: circular dichroism; conditions: binding buffer: 8 g/L NaCl, 0.2 g/L KCl, 0.1 g/L MgCl2·6H2O, 0.1 g/L CaCl2; 1 μM aptamer, 10 μM CBL, room temperature, 30 min
[5] = tested on: aptamer 132 (DNA, aptamer) ACGCATAGGGACCATGCGCAGTGAACTTGGTTCTTTGTGCTCATGTGTGCCTATGCGT; assay: AuNP colorimetric titration (A520); conditions: 0.9 M NaCl (10 µL) added after binding; aptamer 0-1600 nM titrated against 1 μg/mL CBL, water, 30 min, room temperature
[6] = tested on: aptamer 78 (DNA, aptamer) ACGCATAGGGTACGCCACAGATCGACCTCTGGTTGGTCCTGTTGTGTGGCCTATGCGT; assay: circular dichroism; conditions: binding buffer: 8 g/L NaCl, 0.2 g/L KCl, 0.1 g/L MgCl2·6H2O, 0.1 g/L CaCl2; 1 μM aptamer, 10 μM CBL, room temperature, 30 min
[7] = tested on: aptamer 47 (DNA, aptamer) ACGCATAGGTCATGCCAAGCTGTACACCGTCCTGGCCTGGTTGGGATGTCCTATGCGT; assay: circular dichroism; conditions: binding buffer: 8 g/L NaCl, 0.2 g/L KCl, 0.1 g/L MgCl2·6H2O, 0.1 g/L CaCl2; 1 μM aptamer, 10 μM CBL, room temperature, 30 min
[8] = tested on: aptamer 154 (DNA, aptamer) ACGCATAGGGCATCACACATGTCCTTGCCATTGCTGACTTGTTTGGTGTCCTATGCGT; assay: circular dichroism; conditions: binding buffer: 8 g/L NaCl, 0.2 g/L KCl, 0.1 g/L MgCl2·6H2O, 0.1 g/L CaCl2; 1 μM aptamer, 10 μM CBL, room temperature, 30 min
[9] = tested on: aptamer 64 (DNA, aptamer) ACGCATAGGTACACCACATCGGATCGTAATGCGTATGTGACTCAGTGTGCCTATGCGT; assay: AuNP colorimetric titration (A520); conditions: 0.9 M NaCl (10 µL) added after binding; aptamer 0-1600 nM titrated against 1 μg/mL CBL, water, 30 min, room temperature
[10] = tested on: aptamer 28 (DNA, aptamer) ACGCATAGGATGCAACAACGCGAATGCCACCAATTCGTGCTTGTCGTGTCCTATGCGT; assay: circular dichroism; conditions: binding buffer: 8 g/L NaCl, 0.2 g/L KCl, 0.1 g/L MgCl2·6H2O, 0.1 g/L CaCl2; 1 μM aptamer, 10 μM CBL, room temperature, 30 min
[11] = tested on: aptamer 47 (DNA, aptamer) ACGCATAGGTCATGCCAAGCTGTACACCGTCCTGGCCTGGTTGGGATGTCCTATGCGT; assay: AuNP colorimetric titration (A520); conditions: 0.9 M NaCl (10 µL) added after binding; aptamer 0-1600 nM titrated against 1 μg/mL CBL, water, 30 min, room temperature
[12] = tested on: aptamer 132 (DNA, aptamer) ACGCATAGGGACCATGCGCAGTGAACTTGGTTCTTTGTGCTCATGTGTGCCTATGCGT; assay: circular dichroism; conditions: binding buffer: 8 g/L NaCl, 0.2 g/L KCl, 0.1 g/L MgCl2·6H2O, 0.1 g/L CaCl2; 1 μM aptamer, 10 μM CBL, room temperature, 30 min
[13] = tested on: aptamer 154 (DNA, aptamer) ACGCATAGGGCATCACACATGTCCTTGCCATTGCTGACTTGTTTGGTGTCCTATGCGT; assay: AuNP colorimetric titration (A520); conditions: 0.9 M NaCl (10 µL) added after binding; aptamer 0-1600 nM titrated against 1 μg/mL CBL, water, 30 min, room temperature
[14] = tested on: aptamer 47 (DNA, aptamer) ACGCATAGGTCATGCCAAGCTGTACACCGTCCTGGCCTGGTTGGGATGTCCTATGCGT; assay: AuNP colorimetric specificity assay (A620/A520); conditions: 0.9 M NaCl added after binding; 1 μg/mL compound, 0.4 μM aptamer, room temperature, 30 min
[15] = tested on: aptamer 64 (DNA, aptamer) ACGCATAGGTACACCACATCGGATCGTAATGCGTATGTGACTCAGTGTGCCTATGCGT; assay: AuNP colorimetric specificity assay (A620/A520); conditions: 0.9 M NaCl added after binding; 1 μg/mL compound, 0.4 μM aptamer, room temperature, 30 min
[16] = tested on: aptamer 154 (DNA, aptamer) ACGCATAGGGCATCACACATGTCCTTGCCATTGCTGACTTGTTTGGTGTCCTATGCGT; assay: AuNP colorimetric specificity assay (A620/A520); conditions: 0.9 M NaCl added after binding; 1 μg/mL compound, 0.4 μM aptamer, room temperature, 30 min
[17] = tested on: aptamer 78 (DNA, aptamer) ACGCATAGGGTACGCCACAGATCGACCTCTGGTTGGTCCTGTTGTGTGGCCTATGCGT; assay: AuNP colorimetric specificity assay (A620/A520); conditions: 0.9 M NaCl added after binding; 1 μg/mL compound, 0.4 μM aptamer, room temperature, 30 min
[18] = tested on: aptamer 132 (DNA, aptamer) ACGCATAGGGACCATGCGCAGTGAACTTGGTTCTTTGTGCTCATGTGTGCCTATGCGT; assay: AuNP colorimetric specificity assay (A620/A520); conditions: 0.9 M NaCl added after binding; 1 μg/mL compound, 0.4 μM aptamer, room temperature, 30 min
[19] = tested on: aptamer 28 (DNA, aptamer) ACGCATAGGATGCAACAACGCGAATGCCACCAATTCGTGCTTGTCGTGTCCTATGCGT; assay: AuNP colorimetric specificity assay (A620/A520); conditions: 0.9 M NaCl added after binding; 1 μg/mL compound, 0.4 μM aptamer, room temperature, 30 min

| IC50 [1] [ng/mL] | Kd [2] [nM] | Kd [3] [nM] | binding [4] | Kd [5] [nM] | binding [6] | binding [7] | binding [8] | Kd [9] [nM] | binding [10] | Kd [11] [nM] | binding [12] | Kd [13] [nM] | binding [14] | binding [15] | binding [16] | binding [17] | binding [18] | binding [19] | Structure (SMILES) |
| --- | --- | --- | --- | --- | --- | --- | --- | --- | --- | --- | --- | --- | --- | --- | --- | --- | --- | --- | --- |
| 5.44 ± 0.01 (≈ 0.0196 µM) | 321 ± 104.5 | 201.1 ± 42.42 | yes | 221.6 ± 41.87 | yes | yes | yes | 123.3 ± 14.28 | yes | 42.17 ± 8.98 | yes | 268.8 ± 40.43 |  |  |  |  |  |  | CC(C)(C)NCC(O)c1cc(Cl)c(N)c(Cl)c1 (stereo not shown) |
|  |  |  |  |  |  |  |  |  |  |  |  |  | no | no | no | no | no | no | CC(C)(C)NCC(O)c1cc(O)cc(O)c1 (stereo not shown) |
|  |  |  |  |  |  |  |  |  |  |  |  |  | no | no | no | no | no | no | CC(C)(C)NCC(O)c1ccc(O)c(CO)c1 (stereo not shown) |
|  |  |  |  |  |  |  |  |  |  |  |  |  | no | no | no | no | no | no | CC(CCc1ccc(O)cc1)NCC(O)c1ccc(O)cc1 (stereo not shown) |
